Results from patent publication US20060088897A1, “Modulators” (priority 2003, published 2006).
Entries after “also recorded” stand apart in the source; their conditions may differ.

B1: CSF: growth factor for Bac1 macrophages; activates Cdc42Hs and Rac1 (protein, UniProt P07141 33-552, looked up)
Macrophage colony-stimulating …: KEVSEHCSHMIGNGHLKVLQQLIDSQMETSCQIAFEFVDQEQLDDPVCYLKKAFFLVQDIIDETMRFKDNTPNANATERLQELSNNLNSCFTKDYEEQNKACVRTFHETPLQLLEKIKNFFNETKNLLEKDWNIFTKNCNNSFAKCSSRDVVTKPDCNCLYPKATPSSDPASASPHQPPAPSMAPLAGLAWDDSQRTEGSSLLPSELPLRIEDPGSAKQRPPRSTCQTLESTEQPNHGDRLTEDSQPHPSAGGPVPGVEDILESSLGTNWVLEEASGEASEGFLTQEAKFSPSTPVGGSIQAETDRPRALSASPFPKSTEDQKPVDITDRPLTEVNPMRPIGQTQNNTPEKTDGTSTLREDHQEPGSPHIATPNPQRVSNSATPVAQLLLPKSHSWGIVLPLGELEGKRSTRDRRSPAELEGGSASEGAARPVARFNSIPLTDTGHVEQHEGSSDPQIPESVFHLLVPGIILVLLTVGGLLFYKWKWRSHRDPQTLDSSVGRPEDSSLTQDEDRQVELPV

Columns and labels:
Type in all cases: cell-based
N1E-115 cells [1] = experiment: Microinjection of peptides into partially serum starved N1E-115 cells, phalloidin staining and confocal microscopy of cell morphology; conditions: for effect on formation of lamellipodia, filopodia or neurites concluded from microinjection: FIG. 8A; for cell morphology after peptide microinjection: peptide injected at 10 μg/ml, cells serum starved 2-4 h, FIG. 7A, 8A
Description: Cells are starved for 2-3 h and then either injected with peptides (10 μg/ml) or exposed to peptides with bioporter reagent. Cells are incubated for a further 2 h before being stained with phalloiden and examined by confocal microscopy (as described in the materials and methods section). (A) The upper cells is injected with αP1 (a), or all cells injected with αP1*(b), or exposed to αP2 with bioporter reagent (c). […] Results are expressed as means+/−SEM of 3 experiments (n=333-426 cells). […] (D) Cells are exposed to bioporter reagent with αP2 and after 6 h double stained with αPAK and vinculin antibodies; (a) Vinculin/αPAK, (b) Vinculin and (c) αPAK. Bar=10 μM. Control bars are with IgG with bioporter/microinjection.
(§1) Cells are starved for 2-3 h and then injected with peptides. Cells are then incubated for 2 h before being stained with phalloiden and examined by confocal microscopy (as described in the materials and methods section). (A) Cells are injected with IgG (a), with αP2 (b), with βP2 (c) and γP2 (d). Bar=10 μM. (B) Cells are exposed to bioporter with peptides and presence of neurites, pronounced filopodia and pronounced lamellipodia/ruffles scored (definitions as in FIG. 7). (C) Cells are either exposed to bioporter reagent coated peptides (αP2 and βP2) and then IGF or serum starvation used to activate cells. For γP2 cells are injected with peptide and stimulated with serum. Filopodia and lamellipodia are scored by using time-lapse phase contrast microscopy. +/−SEM of 3 experiments (n=900). Control peptide is taken from the kinase domain and common to the three PAK isoforms.
Cells are plated out at 1.0×10^5 cells in 1 ml in a 35 mm dish containing 2 laminin coated coverslips. The coverslips are first marked with a grid using a fine permanent marker and then coated with laminin and incubated overnight in DMEM, 10% FCS, 1% AB/AM. The media is replaced with serum free media (DMEM, 1% AB/AM) and the cells starved for 1 hour so that they flattened and are easier to inject. The peptides are injected at 10 μg/ml in PBS, Rat IgG at 1 mg/ml is added to act as a marker for injected cells.
The cells are injected using an Eppendorf microinjection apparatus on an Axioplan inverted microscope equipped with a heated stage maintained at 37° C. and a 5% CO2 chamber. Humidity is maintained by a dish of sterile water inside the CO2 chamber. Cells in a grid square are injected and positive injection checked visually at the time of injection or after fixation and staining for the injected marker. After injection the cells are returned to the incubator for a further 2 hours. Giving a total time without serum of 4 hours.
The only difference between these two peptides being that the latter peptide is phosphorylated on serine and this modification prevents it from binding Nck (Zhao et al., 1998). To investigate the effects of peptides we first serum starve the cells for 2-4 h to activate Cdc42Hs and Rac.

N1E-115 cells [2] = experiment: Phase contrast time-lapse analysis of filopodia and lamellipodia formation in a gradient of IGF; conditions: followed for 60 min; FIG. 8C
Description: as §1
Time lapse microscopy is carried out on a heated stage (37° C.) in an atmosphere of humidified air and 5% CO2. Cells are video recorded using a, Axiovert 135 microscope, Palmix TM-6CN video camera and Sony-u-matic V0-5800 PS video recorder. Individual images are captured using Bio-rad COMOS software and manipulated with Adobe photoshop. Confocal microscopy is carried out using a LSM 410 Zeiss scanning microscope with 3 single line lasers at 488 nM (argon), 543 nM and 633 nM, (HeNe). […]

N1E-115 cells [3] = experiment: Cell guidance assay at Laminin/CSPG boundary (axonal guidance); conditions: for neurite morphology: serum starved cells, FIG. 9A
Description: Effect of PAK peptides on neurite morphology. Cells are exposed to control peptide, αP 1*, αP2, βP2, or γP2 and neurite morphology assessed. (B) Cells are plated on coverslips that been treated to create a Laminin/CSGP boundary. After 6 h cells are examined for their ability to project neurites that crossed the substrate boundary. Cells exposed to bioporter coated peptides, (a) αP2, (b) βP2, and (c) γP2. […] Results are means+/−SEM (n=161-263). (C) Cells are exposed to peptides and after 6 h are scored for their ability to cross boundary from Laminin to CSPG.
The coverslips are washed and sterilised and then coated in one of the following ways.
A second layer of laminin is applied as a drop mixed with 1 μg/ml TRITC label. Coverslips are left for 1 hour at RT and then rinsed twice with sterile water before allowing to dry before use. (iii) Attractive/repulsive boundary. Slides are coated with CSPG 5 μg/ml for 1 hour at 37° C. in a humid chamber then rinsed once in sterile H2O and allowed to air dry before the drop of laminin at 10 μg/ml is applied to the centre of the coverslip and left for 1 hour at RT before rinsing twice in sterile water and allowing to dry before use. This coating is also done in reverse with the laminin applied first and then the tenascin or the CSPG applied second.
The cells are then seeded onto the prepared coverslips at 2×10^5 cells in 1 ml in a 35 mm petri dish, in DMEM, 10% FCS, and 1% AB/AM. Cells are allowed to attach overnight. The media is then removed and the coverslips rinsed in serum free media and incubated overnight (18 h) in serum free media. After the starvation the cells are fixed and stained to show the morphology of the cells at the boundary. Only neurites expressing neurofilamant are scored.
After 5 minutes, the cells are washed once with serum free DMEM media and then 1 ml of serum free DMEM is added to the tube containing the peptide and BioPorter mix it is vortexed gently before being added to the cells. The cells are incubated for 4 hours at 37° C. After the 4 hour incubation the cells are then incubated for a further 2 hours in 5% FCS DMEM or for cells undergoing a substrate guidance assay the 2 hour incubation is in serum free DMEM. The cells are fixed and stained.
Neurofilament positive neurites are scored for how they respond to Laminin/CSPG boundary. […] However, neurites do have distinct morphologies (FIG. 9A). Thus α, β and γ PAK are not essential for neurite outgrowth.

N1E-115 cells [4] = experiment: Axonal guidance towards IGF (preliminary experiments); conditions: unpublished data
Description: In preliminary experiments we have also examined the effect of the PAK peptides on axonal guidance towards IGF in N1E-115 cells.

Bac1 macrophages = experiment: Time lapse / microinjection analysis of Bac1 macrophage morphology (CSF, LPA gradients, C3 toxin)
Description: (A) Bac1 cells are grown (24 h) in four different ways and then stained with phalloidin to visualise F-actin. With serum alone (a), without CSF/serum (b), with CSF/serum (c), and with CSF alone (d). (B) Cells are starved of CSF for 24 h and then exposed to gradient of CSF (1.32 nM) through a needle. A time lapse sequence is shown over 30 min. (C) Bac1 macrophages are CSF/serum starved for 24 h and then exposed to a gradient of LPA through a needle. A time lapse sequence is shown over 10 min. (D) Bac1 macrophages starved for serum alone and then exposed to a gradient of CSF through a needle and LPA added to the medium. CSF is added in panel (b) followed by LPA. Panels c-f show process retraction on the side of the cell that is not protected by CSF. Arrows in (B) show the formation of filopodia. Arrows in (C) show process retraction. Bar=10 μM. […]
Proteins purified from E. coli and C3 toxin are microinjected in 50 MM Tris pH 7.5, 50 mM NaCl, 5 mM MgCl2 using an Eppendorf microinjector and Axiovert microscope. Successful injection is determined visually at the time of injection and by use of IgG. […]
Time lapse microscopy is carried out on a heated stage (37° C.) in an atmosphere of humidified air and 5% CO2. Cells are video recorded using a, Axiovert 135 microscope, Palmix TM-6CN video camera and Sony-u-matic V0-5800 PS video recorder. […]

Row | Molecule | effect on formation of lamellipodia, filopodia or neurites concluded from microinjection (N1E-115 cells [1]) | cell morphology after peptide microinjection (N1E-115 cells [1]) | formation of filopodia in response to IGF gradient (N1E-115 cells [2]) | ability to detect the Laminin/CSPG boundary (N1E-115 cells [3]; FIG. 9C) | neurites crossing over the Laminin/CSPG boundary (N1E-115 cells [3]; control approx. 10%, FIG. 9C) | neurite morphology (N1E-115 cells [3]) | formation of lamellipodia in response to IGF gradient (N1E-115 cells [2]) | decision making process of moving towards IGF (N1E-115 cells [4]) | effect on axonal guidance towards IGF (N1E-115 cells [4]) | protection from LPA mediated process collapse (Bac1 macrophages; CSF via needle, LPA added to medium after 1.5 min, FIG. 2D) | morphological response of Bac1 cells to a gradient of the factor (Bac1 macrophages; gradient through a needle, FIG. 2B, 2C)
1 | SDNGELEDKPPAPPVRMSST [γP2, peptide derived from γPAK] | blocks filopodia formation | large fan-shaped lamellipodia with no filopodia | inhibit | do not to recognize the boundary | 60-70% | smooth and flattened with fan shaped growth cones; also recorded: flattened growth cones and very few filopodia | – | – | – | – | –
2 | SDSLDNEEKPPAPPLRMNSN [βP2, peptide derived from βPAK] | blocks lamellipodia formation | numerous filopodia along a newly formed leading edge with no lamellipodia | – | not affected | – | branched and spiky with lamellipodia and ruffles inhibited | inhibit | does slow down the decision making process | do not affect guidance | – | –
3 | B1 | – | – | – | – | – | – | – | – | – | can protect the process nearest to the source of CSF from LPA mediated process collapse | induces the formation of filopodia and lamellipodia
